Experimental data taken from US20250314665A1, “BIOMARKERS FOR CEREBRAL METABOLIC DISORDERS, AND DIAGNOSTIC METHODS USING THEREOF” (COMMISSARIAT A L'ENERGIE ATOMIQUE ET AUX ENERGIES …, priority 2022, published 2025).
“Also recorded” adds a separate entry of the source.

Experiments:
Assay type in all cases: in vivo, mouse
CrT KO mice [1] = test: Y maze spontaneous alternation in DCE-treated CrT KO mice
Experimental: (§1) Treatment continued during behavioral testing, which took two weeks, for a total of 30 days of treatment. The testing order for behavioral assessment performed in the same mice consisted of: object recognition test (ORT) 24 h (3 days), Y maze (1 day), Morris water maze (MWM) with hidden platform (7 days).
Mice were placed in the center of the maze and movement was recorded for 8 min. The number of arm entries (all four limbs within the arm) and the number of triads (three arm entries) were video-recorded in order to calculate the alternation percentage defined as the number of triads divided by the number of possible alternations (total arm entries minus 2) and then multiplying by 100.
(§2) DCE was intranasally administered (Ullio-Gamboa G, et al. Dodecyl creatine ester-loaded nanoemulsion as a promising therapy for creatine transporter deficiency. Nanomedicine 14, 1579-1593 (2019)) to Slc6a8^−/y for 30 days, once a day at 4 mg/g of body weight, whilst the control groups were wild-type (WT) and vehicle-treated (Veh) Slc6a8^−/y mice, at N=8/group. Cognitive performance was evaluated using the object recognition test, the Y-maze, and the Morris water maze (MWM). Then, proteomics was performed on four different brain regions: cortex, hippocampus, cerebellum and brainstem; and the key protein abundances were correlated with behavioral performance, identifying several mechanistic pathways.

CrT KO mice [2] = test: Object recognition test (ORT) in DCE-treated CrT KO mice
Experimental: as §1
The day before testing, mice were familiarized with the empty arena for 10 min. The object recognition test (ORT), which is based on the spontaneous tendency of rodents to spend more time exploring a novel object than a familiar one, measures short- and long-term memory and consists of a sample and a testing phase. During the sample phase, mice were placed in the arena with two identical objects placed in diagonally opposite corners of the arena (about 6 cm from the walls) for 10 min. The test phase was 24 hours after the sample phase. Mice were returned to the arena with an identical copy of one of the familiar objects and a new object placed in the same position. The mice explored the objects for 5 min.
as §2

CrT KO mice [3] = test: Western blotting of dissected brain tissue after DCE treatment
Experimental: Western blotting was used to detect the abundance of PLCB1 and the two inhibitors of NFkB, IKBα and IKBβ, in the dissected brain tissue. Briefly, brain tissue was homogenized in freshly prepared lysis buffer containing 20 mM Trizma-Base, 150 mM NaCl, pH 7.4 (Sigma-Aldrich, Saint-Quentin Fallavier, France) and supplemented with 1% Triton X-100, 4% of complete Protease Inhibitor Cocktail and 20% of a mix of anti-phosphatase inhibitors using a Precellys Evolution tissue homogenizer. The samples were then centrifuged first at 2500×g (15 min) and then at 10 000×g (20 min) on homogenates to produce lysate for electrophoresis. Proteins (10 to 20 μg) and protein standard in Laemmli buffer were loaded on 4%-15% CRITERION TGX STAIN-FREE protein gel in running buffer TGS 1×(all from Bio-Rad, Marnes-la-Coquette, France) and transferred to a 0.2 μm PVDF membrane with the Trans-Blot Turbo RTA Midi Transfer Kit (Bio-Rad, Marnes-la-Coquette, France). Membranes were blocked for 30 min in 5% low-fat milk in TBS-Tween 20 0.1% at room temperature. Blots were probed with specific primary antibodies overnight at 4° C. and detected by horseradish peroxidase secondary antibodies diluted 1:5 000 or 1:50 000 in 5% low-fat milk in TBS-Tween 20 0.1% at room temperature. For protein detection, membranes were exposed to the ECL prime Western blotting system (Amersham, UK) or Clarity western ECL substrate in a chemidoc touch imaging system for a measurable exposure time (Bio-Rad, Marnes-la-Coquette, France) and quantified with Image Lab Software (Bio-Rad, Marnes-la-Coquette, France). The following antibodies and dilutions were used: anti-PLCB1 (1/1000, Abcam, ab182359), anti-IKBα (1/500, Cell Signaling Technology, 4812S), anti-IKBβ (1/500, Cell Signaling Technology, 15519S), anti-PSD95 (1/2000, Merck, MABN68), and anti-tubulin (1/2000, Sigma-Aldrich, T6199), anti-KIF1A (1/1000, Abcam, ab180153).
as §2

CrT KO mice [4] = test: Morris water maze (MWM) in DCE-treated CrT KO mice; settings: DCE intranasal 4 mg/g once a day; hidden platform, 7 days
Experimental: as §1
Mice were trained for 4 trials per day and for a total of 7 days in a circular water tank (diameter, 120 cm; height, 40 cm), filled with water (23° C.) rendered opaque by the addition of a non-toxic white paint to a depth of 25 cm. […] Mice were allowed up to 60 s to reach the escape platform, and their swimming paths were automatically recorded by the Noldus Ethovision system. On the last trial of the last training day, mice received a probe trial, during which the escape platform was removed from the tank and the swimming paths were recorded over 60 s while mice searched for the missing platform
as §2, with “Then, proteomics was performed on four different brain regions: cortex, hippocampus, cerebellum and brainstem; and the key protein abundances were correlated with behavioral performance, identifying several mechanistic pathways.” left out

CrT KO mice [5] = test: Label-free shotgun proteomics of brain regions after DCE treatment
Experimental: Total protein (15 μg) was extracted from different brain regions and mixed with lithium dodecyl sulfate lysis buffer (Invitrogen) and incubated at 99° C. for 5 min, and then separated by a short electrophoresis migration (5 min) at 200 V on NuPAGE 4-12% Bis-Tris gel with MES/SDS 1× (Invitrogen) as running buffer. Gels were stained with SimplyBlue SafeStain (Thermo) for 5 min followed by an overnight wash in water with gentle agitation. The polyacrylamide band containing the whole proteome from each sample was excised and treated as recommended (Hartmann E M, Armengaud J. N-terminomics and proteogenomics, getting off to a good start. Proteomics 14, 2637-2646 (2014)). Proteins were in-gel proteolyzed with trypsin gold (Promega) in the presence of 0.01% of Protease Max surfactant (Promega) at 50° C. for 60 min. From the resulting peptide fraction (50 μL), a volume of 1 μL corresponding to approximately 300 ng of peptides was analyzed by liquid chromatography-tandem mass spectrometry (LC-MS/MS) using an Ultimate 3000 nano-LC system coupled to a Q-Exactive HF mass spectrometer (Thermo Scientific) operated as described previously (Hartmann E M, Armengaud J. N-terminomics and proteogenomics, getting off to a good start. Proteomics 14, 2637-2646 (2014)). Peptides were loaded on a reverse-phase PepMap 100 C18 μ-precolumn (5 μm, 100 Å, 300 μm i.d.×5 mm, Thermo Fisher), and then resolved on a nanoscale PepMap 100 C18 nanoLC column (3 μm, 100 Å, 75 μm i.d.×50 cm, Thermo Fisher) at a flow rate of 0.2 μL·min^−1 using a 90-min gradient (4% B for 0 to 3 min, 4-25% B from 3 to 78 min and 25-40% B from 78 to 93 min) with mobile phase A corresponding to 0.1% HCOOH/100% H2O and mobile phase B corresponding to 0.1% HCOOH/80% CH3CN/20% H2O). The mass spectrometer was operated in Top20 mode, with a scan range of MS acquisition from 350 to 1800 m/z and selection and fragmentation using a 10 s dynamic exclusion time for the 20 most abundant precursor ions. Only ion precursors with a 2+ or 3+ charge were selected for High-energy collisional dissociation (HCD) fragmentation performed at a normalized collision energy of 27 eV.
MS/MS spectra were assigned using the Mascot Daemon software version 2.6.1 (Matrix Science) and the Mus musculus SwissProt database comprising 17,096 protein sequences. Peptide tolerance, MS/MS fragment tolerance, and the maximum of missed cleavages were set at 5 ppm, 0.02 D and 2, respectively. Carbamidomethylation of cysteine was considered as fixed modification. Oxidation of methionine was taken into account as variable modification. Peptides identified at a p-value≤0.05 in homology threshold mode and proteins identified with at least two distinct peptides were selected (false discovery rate below 1%).
In-house script was constructed, using R programming language, to identify the differentially expressed proteins between the […] four different regions of the brain: cortex, cerebellum, hippocampus and brainstem. Initially, the proteomics data were normalized using the Variance Stabilizing Normalization (Motakis E S, Nason G P, Fryzlewicz P, Rutter G A. Variance stabilization and normalization for one-color microarray data using a data-driven multiscale approach. Bioinformatics 22, 2547-2553 (2006)). Proteins with at least 10 MS/MS spectra across all conditions were retained. Unsupervised variation filter was then applied to the proteomics data (Hamoudi R A, et al. Differential expression of NF-kappaB target genes in MALT lymphoma with and without chromosome translocation: insights into molecular mechanism. Leukemia 24, 1487-1497 (2010)) where any 8 samples with MS/MS detected protein were included. […]

Compound: CCCCCCCCCCCCOC(=O)CN(C)C(=N)N [DCE, dodecyl creatine ester]
- spontaneous alternation performance in Y-maze vs vehicle CrT KO mice (CrT KO mice [1]; DCE intranasal 4 mg/g once a day): higher; also recorded: significantly improved
- alternation rate in Y-maze vs WT mice (CrT KO mice [1]; DCE-treated CrT KO mice, P=0.058): did not differ
- median alternation rate in Y-maze (CrT KO mice [1]; DCE-treated CrT KO mice, vehicle 48%, WT 62%, P=0.058 vs WT): 86%
- time observing the novel object, DCE-treated vs vehicle-treated CrT KO mice (CrT KO mice [2]; ORT 24 h, DCE intranasal once a day 4 mg/g body weight, 30 days, N=8/group, one-way ANOVA p<0.01, Tukey p<0.05): more time
- median time (novel object) of DCE-treated group as % of the WT median value (CrT KO mice [2]; ORT, DCE intranasal 4 mg/g once a day): 96%
- observation time of novel object compared with WT mice (CrT KO mice [2]; ORT, DCE intranasal 4 mg/g once a day, p=0.406): no difference
- object discrimination index / percent time with the novel object (FIG. 2A, 2B) (CrT KO mice [2]; ORT, WT and DCE-treated, but not vehicle-treated KO mice): preference for the novel object
- PLCB1 protein abundance by Western blot (CrT KO mice [3]; brain cortex, DCE-treated CrT KO mice, p=0.0004): significant increase; also recorded: significantly increased
- IκBα protein level by Western blot (CrT KO mice [3]; brain cortex, DCE-treated CrT KO mice, p=0.008): reconstituted; also recorded: promotes
- postsynaptic density protein PSD95 by Western blot (CrT KO mice [3]; brain cortex, p=0.0096): significantly upregulated
- KIF1A by Western blot (overexpressed in vehicle CrT KO mice) (CrT KO mice [3]; cerebellum): rescued this overexpression
- PLCB1 protein abundance by Western blot (CrT KO mice [3]; cerebellum, DCE-treated CrT KO mice): significantly increased
- KIF1A by Western blot (overexpressed in vehicle CrT KO mice) (CrT KO mice [3]; cortex): rescued this overexpression
- Pro-BDNF/BDNF level by Western blot (CrT KO mice [3]; cortex, p=0.0043): higher
- KIF1A by Western blot (overexpressed in vehicle CrT KO mice) (CrT KO mice [3]; hippocampus): rescued this overexpression
- PLCB1 protein abundance by Western blot (CrT KO mice [3]; hippocampus, DCE-treated CrT KO mice): significantly increased
- memory abilities in MWM (CrT KO mice [4]): No positive effects
- presynaptic IgSF8 protein abundance (CrT KO mice [5]; brain cortex): significantly upregulated
- ANK1 abundance (downregulated in vehicle CrT KO mice), effect of DCE treatment (CrT KO mice [5]; cerebellum): significantly rescued
- ANXA5 abundance (downregulated in vehicle CrT KO mice), effect of DCE treatment (CrT KO mice [5]; cerebellum): significantly rescued
- FABP7 abundance (upregulated in CrT KO mice), DCE-treated CrT KO vs WT (CrT KO mice [5]; cerebellum): unchanged
- LMNB1 abundance (upregulated in CrT KO mice), DCE-treated CrT KO vs WT (CrT KO mice [5]; cerebellum): unchanged
- MeCP2 abundance (downregulated in vehicle CrT KO mice), effect of DCE treatment (CrT KO mice [5]; cerebellum): significantly rescued
- PURB abundance (upregulated in CrT KO mice), DCE-treated CrT KO vs WT (CrT KO mice [5]; cerebellum): unchanged
- DCLK1 abundance (upregulated in CrT KO mice), DCE-treated CrT KO vs WT (CrT KO mice [5]; cortex): unchanged
- NCAM1 abundance (upregulated in CrT KO mice), DCE-treated CrT KO vs WT (CrT KO mice [5]; cortex): unchanged
- PI4KA abundance (upregulated in CrT KO mice), DCE-treated CrT KO vs WT (CrT KO mice [5]; cortex): unchanged
- PLCB1 abundance (downregulated in vehicle CrT KO mice), effect of DCE treatment (CrT KO mice [5]; cortex): significantly rescued
- PURB abundance (upregulated in CrT KO mice), DCE-treated CrT KO vs WT (CrT KO mice [5]; cortex): unchanged
- IGSF8 abundance (downregulated in vehicle CrT KO mice), effect of DCE treatment (CrT KO mice [5]; hippocampus): significantly rescued
- KIF1A abundance (upregulated in CrT KO mice), DCE-treated CrT KO vs WT (CrT KO mice [5]; hippocampus): unchanged
- L1CAM abundance (upregulated in CrT KO mice), DCE-treated CrT KO vs WT (CrT KO mice [5]; hippocampus): unchanged
- NCAM1 abundance (upregulated in CrT KO mice), DCE-treated CrT KO vs WT (CrT KO mice [5]; hippocampus): unchanged
